{
  "source": "ChEMBL document CHEMBL1201862",
  "about": "“PubChem BioAssay data set” (2004)",
  "experiment_in_all_cases": "NCI-60 cell line screen, 48 h",
  "key": {"HL-60": {"test_system": "HL-60"}, "SK-OV-3": {"test_system": "SK-OV-3"}, "KM12": {"test_system": "KM12"}, "XF498": {"test_system": "XF498"}, "HOP-62": {"test_system": "HOP-62"}, "A498": {"test_system": "A498"}, "SNB-78": {"test_system": "SNB-78"}, "M14": {"test_system": "M14"}, "MOLT-4": {"test_system": "MOLT-4"}, "NCI-H460": {"test_system": "NCI-H460"}, "SN12C": {"test_system": "SN12C"}, "OVCAR-4": {"test_system": "OVCAR-4"}, "CCRF-CEM": {"test_system": "CCRF-CEM"}, "U-251": {"test_system": "U-251"}, "CAKI-1": {"test_system": "CAKI-1"}, "SK-MEL-28": {"test_system": "SK-MEL-28"}, "IGROV-1": {"test_system": "IGROV-1"}, "SF-539": {"test_system": "SF-539"}, "SF-268": {"test_system": "SF-268"}, "RXF 393": {"test_system": "RXF 393"}, "NCI-H23": {"test_system": "NCI-H23"}, "KM-20L2": {"test_system": "KM-20L2"}, "OVCAR-8": {"test_system": "OVCAR-8"}, "786-0": {"test_system": "786-0"}, "SNB-75": {"test_system": "SNB-75"}, "K562": {"test_system": "K562"}, "LOX IMVI": {"test_system": "LOX IMVI"}, "DMS-273": {"test_system": "DMS-273"}, "HCT-116": {"test_system": "HCT-116"}, "A549": {"test_system": "A549"}, "M19-MEL": {"test_system": "M19-MEL"}, "COLO 205": {"test_system": "COLO 205"}, "HCT-15": {"test_system": "HCT-15"}, "EKVX": {"test_system": "EKVX"}, "TK-10": {"test_system": "TK-10"}, "DLD-1": {"test_system": "DLD-1"}, "RXF 631": {"test_system": "RXF 631"}, "SK-MEL-5": {"test_system": "SK-MEL-5"}, "HCC 2998": {"test_system": "HCC 2998"}, "HT-29": {"test_system": "HT-29"}, "HOP-18": {"test_system": "HOP-18"}, "OVCAR-5": {"test_system": "OVCAR-5"}, "LXFL 529": {"test_system": "LXFL 529"}, "UO-31": {"test_system": "UO-31"}, "Malme-3M": {"test_system": "Malme-3M"}, "SW-620": {"test_system": "SW-620"}, "UACC-257": {"test_system": "UACC-257"}, "OVCAR-3": {"test_system": "OVCAR-3"}, "DMS-114": {"test_system": "DMS-114"}, "SF-295": {"test_system": "SF-295"}, "UACC-62": {"test_system": "UACC-62"}, "HOP-92": {"test_system": "HOP-92"}, "ACHN": {"test_system": "ACHN"}, "SNB-19": {"test_system": "SNB-19"}, "SR": {"test_system": "SR"}},
  "note": "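Values below derive from 48-hour exposures of cells grown in 96-well plates, with endpoints linearly interpolated between the two concentrations bracketing the appropriate inhibition level. GI50 is the concentration that inhibits growth by half.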 Active and inactive are the calls of the source. No stated cut-off is given here; in the data, active = GI50 up to about 1.1 µM and inactive = higher.",
  "data": [
    {"smiles": "CC1=C2[C@@H](c3ccccc3)C3C=CC2(C=C3C(F)(F)F)N(C(=O)NC2CCCCC2)C1=O", "note": "(stereo not given in full)", "values": [
      {"measurement": "GI50", "setting": "HL-60", "value": "14.8 µM (inactive)"},
      {"measurement": "GI50", "setting": "SK-OV-3", "value": "> 100 µM (inactive)"},
      {"measurement": "GI50", "setting": "KM12", "value": "72.6 µM (inactive)"},
      {"measurement": "GI50", "setting": "XF498", "value": "> 100 µM (inactive)"},
      {"measurement": "GI50", "setting": "HOP-62", "value": "68.1 µM (inactive)"},
      {"measurement": "GI50", "setting": "A498", "value": "> 100 µM (inactive)"},
      {"measurement": "GI50", "setting": "SNB-78", "value": "36.1 µM (inactive)"},
      {"measurement": "GI50", "setting": "M14", "value": "81.3 µM (inactive)"},
      {"measurement": "GI50", "setting": "MOLT-4", "value": "16.2 µM (inactive)"},
      {"measurement": "GI50", "setting": "NCI-H460", "value": "> 100 µM (inactive)"},
      {"measurement": "GI50", "setting": "SN12C", "value": "> 100 µM (inactive)"},
      {"measurement": "GI50", "setting": "OVCAR-4", "value": "> 100 µM (inactive)"},
      {"measurement": "GI50", "setting": "CCRF-CEM", "value": "25.1 µM (inactive)"},
      {"measurement": "GI50", "setting": "U-251", "value": "> 100 µM (inactive)"},
      {"measurement": "GI50", "setting": "CAKI-1", "value": "51.8 µM (inactive)"},
      {"measurement": "GI50", "setting": "SK-MEL-28", "value": "> 100 µM (inactive)"},
      {"measurement": "GI50", "setting": "IGROV-1", "value": "> 100 µM (inactive)"},
      {"measurement": "GI50", "setting": "SF-539", "value": "52.4 µM (inactive)"},
      {"measurement": "GI50", "setting": "SF-268", "value": "91 µM (inactive)"},
      {"measurement": "GI50", "setting": "RXF 393", "value": "> 100 µM (inactive)"},
      {"measurement": "GI50", "setting": "NCI-H23", "value": "59.8 µM (inactive)"},
      {"measurement": "GI50", "setting": "KM-20L2", "value": "93.1 µM (inactive)"},
      {"measurement": "GI50", "setting": "OVCAR-8", "value": "> 100 µM (inactive)"},
      {"measurement": "GI50", "setting": "786-0", "value": "78 µM (inactive)"},
      {"measurement": "GI50", "setting": "SNB-75", "value": "> 100 µM (inactive)"},
      {"measurement": "GI50", "setting": "K562", "value": "36.6 µM (inactive)"},
      {"measurement": "GI50", "setting": "LOX IMVI", "value": "44 µM (inactive)"},
      {"measurement": "GI50", "setting": "DMS-273", "value": "80 µM (inactive)"},
      {"measurement": "GI50", "setting": "HCT-116", "value": "32.4 µM (inactive)"},
      {"measurement": "GI50", "setting": "A549", "value": "67.5 µM (inactive)"},
      {"measurement": "GI50", "setting": "M19-MEL", "value": "54.6 µM (inactive)"},
      {"measurement": "GI50", "setting": "COLO 205", "value": "> 100 µM (inactive)"},
      {"measurement": "GI50", "setting": "HCT-15", "value": 81.3, "unit": "µM"},
      {"measurement": "GI50", "setting": "EKVX", "value": "69 µM (inactive)"},
      {"measurement": "GI50", "setting": "TK-10", "value": "> 100 µM (inactive)"},
      {"measurement": "GI50", "setting": "DLD-1", "value": "> 100 µM (inactive)"},
      {"measurement": "GI50", "setting": "RXF 631", "value": "39.7 µM (inactive)"},
      {"measurement": "GI50", "setting": "SK-MEL-5", "value": "43.5 µM (inactive)"},
      {"measurement": "GI50", "setting": "HCC 2998", "value": "38.9 µM (inactive)"},
      {"measurement": "GI50", "setting": "HT-29", "value": "72.9 µM (inactive)"},
      {"measurement": "GI50", "setting": "HOP-18", "value": "> 100 µM (inactive)"},
      {"measurement": "GI50", "setting": "OVCAR-5", "value": "> 100 µM (inactive)"},
      {"measurement": "GI50", "setting": "LXFL 529", "value": "36.1 µM (inactive)"},
      {"measurement": "GI50", "setting": "UO-31", "value": "51.5 µM (inactive)"},
      {"measurement": "GI50", "setting": "Malme-3M", "value": "> 100 µM (inactive)"},
      {"measurement": "GI50", "setting": "SW-620", "value": "> 100 µM (inactive)"},
      {"measurement": "GI50", "setting": "UACC-257", "value": "36.2 µM (inactive)"},
      {"measurement": "GI50", "setting": "OVCAR-3", "value": "> 100 µM (inactive)"},
      {"measurement": "GI50", "setting": "DMS-114", "value": "35.1 µM (inactive)"},
      {"measurement": "GI50", "setting": "SF-295", "value": "> 100 µM (inactive)"},
      {"measurement": "GI50", "setting": "UACC-62", "value": "> 100 µM (inactive)"},
      {"measurement": "GI50", "setting": "HOP-92", "value": "> 100 µM (inactive)"},
      {"measurement": "GI50", "setting": "ACHN", "value": "> 100 µM (inactive)"},
      {"measurement": "GI50", "setting": "SNB-19", "value": "> 100 µM (inactive)"},
      {"measurement": "GI50", "setting": "SR", "value": "15.8 µM (inactive)"}
    ]}
  ]
}
